Source: ChEMBL document CHEMBL3351476, “The discovery of I-BET726 (GSK1324726A), a potent tetrahydroquinoline ApoA1 up-regulator and selective BET bromodomain inhibitor” (J Med Chem, 2014)

Assays:
[1] = target: Bromodomain-containing protein 2 (Homo sapiens, UniProt P25440); experiment: Displacement of biotinylated tetra-acetylated histone H4 from His6-tagged BRD2 (1 to 473 aa) (unknown origin) after 1 hr by TR-FRET assay
[2] = target: T1, Bromodomain-containing protein 3 (Homo sapiens, UniProt Q15059); experiment: Displacement of biotinylated tetra-acetylated histone H4 from His6-tagged BRD3 (1 to 475 aa) (unknown origin) after 1 hr by TR-FRET assay
T1 sequence (Q15059 whole entry, the tested form may be a part): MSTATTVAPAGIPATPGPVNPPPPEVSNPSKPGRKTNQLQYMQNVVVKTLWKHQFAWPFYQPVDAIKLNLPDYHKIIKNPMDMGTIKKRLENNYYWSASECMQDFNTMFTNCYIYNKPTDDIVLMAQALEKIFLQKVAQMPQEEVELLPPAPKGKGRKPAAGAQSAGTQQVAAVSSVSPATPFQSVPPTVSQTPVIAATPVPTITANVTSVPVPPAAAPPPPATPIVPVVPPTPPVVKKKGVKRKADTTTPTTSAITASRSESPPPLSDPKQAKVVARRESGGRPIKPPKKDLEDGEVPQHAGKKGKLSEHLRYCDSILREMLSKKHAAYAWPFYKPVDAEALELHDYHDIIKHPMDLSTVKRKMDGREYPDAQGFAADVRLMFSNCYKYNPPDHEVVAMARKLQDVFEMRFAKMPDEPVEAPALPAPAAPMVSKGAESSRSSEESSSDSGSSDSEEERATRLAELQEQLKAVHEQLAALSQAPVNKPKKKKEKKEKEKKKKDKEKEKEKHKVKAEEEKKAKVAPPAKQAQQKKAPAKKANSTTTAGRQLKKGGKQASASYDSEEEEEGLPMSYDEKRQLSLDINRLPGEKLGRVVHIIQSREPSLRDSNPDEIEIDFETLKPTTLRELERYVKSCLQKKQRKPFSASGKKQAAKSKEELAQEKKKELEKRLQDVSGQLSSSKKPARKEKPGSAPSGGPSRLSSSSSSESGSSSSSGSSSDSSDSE

HepG2 = experiment: Upregulation of ApoA1 in human HepG2 cells after 16 hrs by luciferase reporter assay relative to control; type: functional
PBMC = experiment: Inhibition of LPS-induced IL6 production in human PBMC after 18 to 24 hrs by immunoassay; type: functional, cell-based
Blood = experiment: Inhibition of LPS-induced IL6 production in human whole blood after 24 hrs by immunoassay; type: functional, tissue-based
Hepatocyte [3] = experiment: Clearance in human hepatocytes assessed per gram of tissue at 1 uM by LC-MS/MS analysis; type: ADME, cell-based
Hepatocyte [4] = experiment: Clearance in rat hepatocytes assessed per gram of tissue at 1 uM by LC-MS/MS analysis; type: ADME, cell-based
[5] = Clearance in Cynomolgus monkey hepatocytes assessed per gram of tissue at 1 uM by LC-MS/MS analysis; type: ADME, cell-based, Macaca fascicularis, Hepatocyte
Cytochrome P450 1A2 = Cytochrome P450 1A2 (Homo sapiens, UniProt P05177); experiment: Inhibition of CYP1A2 (unknown origin) expressed in Escherichia coli bactosomes using ethoxyresorufin as substrate after 10 mins by fluorescence assay; type: ADME
Sequence of Cytochrome P450 1A2 (P05177 whole entry): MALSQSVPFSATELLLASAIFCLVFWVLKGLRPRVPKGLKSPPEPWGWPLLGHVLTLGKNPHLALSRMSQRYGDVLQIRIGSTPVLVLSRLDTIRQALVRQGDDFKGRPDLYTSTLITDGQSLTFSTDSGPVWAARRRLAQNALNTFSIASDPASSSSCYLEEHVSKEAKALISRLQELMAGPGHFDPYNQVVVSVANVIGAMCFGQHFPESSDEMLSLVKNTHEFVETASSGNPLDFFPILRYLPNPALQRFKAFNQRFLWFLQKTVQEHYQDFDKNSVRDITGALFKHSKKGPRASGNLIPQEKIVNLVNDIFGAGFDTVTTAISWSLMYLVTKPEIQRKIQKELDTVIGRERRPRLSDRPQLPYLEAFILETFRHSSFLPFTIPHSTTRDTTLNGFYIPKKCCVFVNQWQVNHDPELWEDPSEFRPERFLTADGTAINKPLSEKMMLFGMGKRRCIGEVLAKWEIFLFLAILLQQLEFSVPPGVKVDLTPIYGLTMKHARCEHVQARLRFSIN

Cytochrome P450 2C9 = Cytochrome P450 2C9 (Homo sapiens, UniProt P11712); experiment: Inhibition of CYP2C9 (unknown origin) expressed in Escherichia coli bactosomes using 7-methoxy-4-trifluoromethylcoumarin-3-acetic acid as substrate after 10 mins by fluorescence assay; type: ADME
Sequence of Cytochrome P450 2C9 (P11712 whole entry): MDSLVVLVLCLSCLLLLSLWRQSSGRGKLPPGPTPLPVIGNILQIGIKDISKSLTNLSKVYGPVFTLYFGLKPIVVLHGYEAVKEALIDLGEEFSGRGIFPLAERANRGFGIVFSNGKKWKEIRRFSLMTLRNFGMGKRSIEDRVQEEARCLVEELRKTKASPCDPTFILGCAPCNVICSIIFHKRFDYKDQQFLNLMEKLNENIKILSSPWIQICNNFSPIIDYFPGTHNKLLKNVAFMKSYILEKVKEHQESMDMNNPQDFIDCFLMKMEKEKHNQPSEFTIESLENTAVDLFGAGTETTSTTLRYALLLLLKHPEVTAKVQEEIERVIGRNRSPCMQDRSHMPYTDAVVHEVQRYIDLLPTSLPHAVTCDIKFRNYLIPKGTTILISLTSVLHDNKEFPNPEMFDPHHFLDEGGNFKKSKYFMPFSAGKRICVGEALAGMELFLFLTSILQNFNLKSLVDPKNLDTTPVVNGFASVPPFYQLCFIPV

Cytochrome P450 2D6 = Cytochrome P450 2D6 (Homo sapiens, UniProt P10635); experiment: Inhibition of recombinant human CYP2D6 expressed in Escherichia coli bactosomes using 4-methylaminomethyl-7-methoyxycoumarin as substrate after 10 mins by fluorescence assay; type: ADME
CREB-binding protein [6] = target: T2, CREB-binding protein (Homo sapiens, UniProt Q92793); experiment: Binding affinity to CREBBP (unknown origin) by ITC method
T2 sequence (Q92793 whole entry, the tested form may be a part): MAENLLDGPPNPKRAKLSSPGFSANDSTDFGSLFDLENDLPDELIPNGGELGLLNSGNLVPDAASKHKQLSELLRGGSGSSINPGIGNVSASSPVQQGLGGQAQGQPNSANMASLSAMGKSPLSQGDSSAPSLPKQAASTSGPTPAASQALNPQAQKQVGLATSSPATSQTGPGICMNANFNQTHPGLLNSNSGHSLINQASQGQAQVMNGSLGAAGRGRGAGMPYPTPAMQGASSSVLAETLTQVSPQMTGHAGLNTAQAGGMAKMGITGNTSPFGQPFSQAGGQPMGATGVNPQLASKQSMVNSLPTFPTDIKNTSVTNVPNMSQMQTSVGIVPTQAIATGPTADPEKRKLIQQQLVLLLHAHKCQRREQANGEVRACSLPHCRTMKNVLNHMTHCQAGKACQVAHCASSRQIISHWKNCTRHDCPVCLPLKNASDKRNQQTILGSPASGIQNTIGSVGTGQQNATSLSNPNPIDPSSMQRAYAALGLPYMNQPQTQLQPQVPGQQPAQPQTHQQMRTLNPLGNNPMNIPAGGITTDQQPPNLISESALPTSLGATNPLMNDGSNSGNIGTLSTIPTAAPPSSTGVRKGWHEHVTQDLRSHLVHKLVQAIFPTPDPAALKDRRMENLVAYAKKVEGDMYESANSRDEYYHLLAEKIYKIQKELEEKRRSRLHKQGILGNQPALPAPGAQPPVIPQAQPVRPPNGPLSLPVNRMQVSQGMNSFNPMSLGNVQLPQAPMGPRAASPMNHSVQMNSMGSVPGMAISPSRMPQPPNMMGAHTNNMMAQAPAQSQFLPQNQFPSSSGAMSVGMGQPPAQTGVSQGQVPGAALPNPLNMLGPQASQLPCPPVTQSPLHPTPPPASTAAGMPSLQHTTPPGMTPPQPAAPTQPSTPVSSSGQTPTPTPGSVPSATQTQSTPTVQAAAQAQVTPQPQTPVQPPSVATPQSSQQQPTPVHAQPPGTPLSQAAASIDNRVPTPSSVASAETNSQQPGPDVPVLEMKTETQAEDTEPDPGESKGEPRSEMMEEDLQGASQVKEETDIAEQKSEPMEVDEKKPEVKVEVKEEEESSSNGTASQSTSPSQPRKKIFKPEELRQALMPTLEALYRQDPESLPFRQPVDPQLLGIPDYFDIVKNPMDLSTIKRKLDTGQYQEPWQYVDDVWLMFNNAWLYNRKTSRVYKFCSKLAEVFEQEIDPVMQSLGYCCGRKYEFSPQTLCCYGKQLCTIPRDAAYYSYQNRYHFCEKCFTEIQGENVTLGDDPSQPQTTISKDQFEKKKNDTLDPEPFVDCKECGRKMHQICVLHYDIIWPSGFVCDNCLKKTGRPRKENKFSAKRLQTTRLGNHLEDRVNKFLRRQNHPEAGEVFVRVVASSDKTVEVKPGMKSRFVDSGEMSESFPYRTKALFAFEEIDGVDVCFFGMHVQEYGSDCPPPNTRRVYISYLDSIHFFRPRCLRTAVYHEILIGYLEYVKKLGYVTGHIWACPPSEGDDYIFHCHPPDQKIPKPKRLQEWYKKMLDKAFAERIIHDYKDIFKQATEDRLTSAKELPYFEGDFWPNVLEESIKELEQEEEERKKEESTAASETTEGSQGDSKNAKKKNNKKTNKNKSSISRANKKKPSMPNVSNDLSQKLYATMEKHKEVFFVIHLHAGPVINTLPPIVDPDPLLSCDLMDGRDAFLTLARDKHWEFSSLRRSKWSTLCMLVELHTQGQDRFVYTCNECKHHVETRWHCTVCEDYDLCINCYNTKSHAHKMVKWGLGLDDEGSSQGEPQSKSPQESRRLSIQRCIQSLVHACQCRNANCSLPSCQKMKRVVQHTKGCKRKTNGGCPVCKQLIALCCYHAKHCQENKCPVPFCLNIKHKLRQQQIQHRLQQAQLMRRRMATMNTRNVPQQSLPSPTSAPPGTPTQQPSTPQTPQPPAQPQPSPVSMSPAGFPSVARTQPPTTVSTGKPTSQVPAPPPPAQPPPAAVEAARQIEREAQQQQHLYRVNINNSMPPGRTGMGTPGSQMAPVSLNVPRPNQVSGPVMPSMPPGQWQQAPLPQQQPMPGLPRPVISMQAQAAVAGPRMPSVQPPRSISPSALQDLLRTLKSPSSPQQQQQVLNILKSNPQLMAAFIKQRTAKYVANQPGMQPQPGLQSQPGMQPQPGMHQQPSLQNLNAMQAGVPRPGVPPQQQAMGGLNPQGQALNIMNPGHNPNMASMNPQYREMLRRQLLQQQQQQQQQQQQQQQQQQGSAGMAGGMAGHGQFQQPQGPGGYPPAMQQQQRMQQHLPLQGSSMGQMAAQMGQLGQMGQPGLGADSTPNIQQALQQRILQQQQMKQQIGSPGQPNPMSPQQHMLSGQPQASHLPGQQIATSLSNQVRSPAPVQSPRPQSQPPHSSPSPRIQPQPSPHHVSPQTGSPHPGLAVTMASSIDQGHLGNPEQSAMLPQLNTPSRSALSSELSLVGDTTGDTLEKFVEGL

[7] = target: ATPase family AAA domain-containing protein 2 (Homo sapiens, UniProt Q6PL18); experiment: Inhibition of human ATAD2 by BROMOscan assay
[8] = target: Nucleosome-remodeling factor subunit BPTF (Homo sapiens, UniProt Q12830); experiment: Inhibition of human BPTF by BROMOscan assay
[9] = target: T1, Bromodomain-containing protein 3; experiment: Inhibition of human BRD3 bromodomain 2 by BROMOscan assay
[10] = target: Bromodomain-containing protein 9 (Homo sapiens, UniProt Q9H8M2); experiment: Inhibition of human BRD9 by BROMOscan assay
[11] = target: Bromodomain testis-specific protein (Homo sapiens, UniProt Q58F21); experiment: Inhibition of human BRDT bromodomain 1 by BROMOscan assay
Peregrin = Peregrin (Homo sapiens, UniProt P55201); experiment: Inhibition of human BRPF1 by BROMOscan assay
[12] = target: Bromodomain and PHD finger-containing protein 3 (Homo sapiens, UniProt Q9ULD4); experiment: Inhibition of human BRPF3 by BROMOscan assay
[13] = target: Chromatin remodeling regulator CECR2 (Homo sapiens, UniProt Q9BXF3); experiment: Inhibition of human CECR2 by BROMOscan assay
CREB-binding protein [14] = target: T2, CREB-binding protein; experiment: Inhibition of human CREBBP by BROMOscan assay
[15] = target: Histone acetyltransferase KAT2A (Homo sapiens, UniProt Q92830); experiment: Inhibition of human GCN5 by BROMOscan assay
Sequence of Histone acetyltransferase KAT2A (Q92830 whole entry): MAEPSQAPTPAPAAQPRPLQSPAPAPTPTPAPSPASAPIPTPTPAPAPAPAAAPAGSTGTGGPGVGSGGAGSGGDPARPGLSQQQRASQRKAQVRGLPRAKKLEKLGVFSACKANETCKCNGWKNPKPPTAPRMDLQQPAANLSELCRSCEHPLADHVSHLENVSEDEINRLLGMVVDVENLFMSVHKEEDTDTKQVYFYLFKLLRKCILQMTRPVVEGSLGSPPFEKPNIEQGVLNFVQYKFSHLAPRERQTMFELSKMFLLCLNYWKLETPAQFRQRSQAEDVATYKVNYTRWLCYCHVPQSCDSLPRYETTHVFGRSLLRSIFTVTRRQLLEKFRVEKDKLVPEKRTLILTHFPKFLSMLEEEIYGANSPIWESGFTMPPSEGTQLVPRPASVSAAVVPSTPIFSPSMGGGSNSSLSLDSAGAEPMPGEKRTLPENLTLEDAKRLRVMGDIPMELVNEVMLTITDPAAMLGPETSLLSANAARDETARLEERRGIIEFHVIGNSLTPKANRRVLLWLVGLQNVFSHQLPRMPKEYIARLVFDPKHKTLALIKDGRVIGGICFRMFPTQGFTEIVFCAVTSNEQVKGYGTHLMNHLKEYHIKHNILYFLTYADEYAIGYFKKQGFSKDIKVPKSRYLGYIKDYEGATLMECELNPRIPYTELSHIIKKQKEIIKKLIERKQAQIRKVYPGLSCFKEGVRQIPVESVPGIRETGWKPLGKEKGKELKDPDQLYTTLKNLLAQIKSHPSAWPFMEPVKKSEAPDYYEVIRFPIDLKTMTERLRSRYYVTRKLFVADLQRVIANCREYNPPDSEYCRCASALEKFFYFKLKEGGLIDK

Protein polybromo-1 = Protein polybromo-1 (Homo sapiens, UniProt Q86U86); experiment: Inhibition of human PBRM1 bromodomain 5 by BROMOscan assay
[16] = target: Histone acetyltransferase KAT2B (Homo sapiens, UniProt Q92831); experiment: Inhibition of human PCAF by BROMOscan assay
[17] = target: Transcription initiation factor TFIID subunit 1-like (Homo sapiens, UniProt Q8IZX4); experiment: Inhibition of human TAF1L by BROMOscan assay
[18] = target: Transcription intermediary factor 1-alpha (Homo sapiens, UniProt O15164); experiment: Inhibition of human TIF1alpha PHD/bromodomain by BROMOscan assay
[19] = target: E3 ubiquitin-protein ligase TRIM33 (Homo sapiens, UniProt Q9UPN9); experiment: Inhibition of human TIF1gamma PHD/bromodomain by BROMOscan assay
[20] = target: Bromodomain and WD repeat-containing protein 1 (Homo sapiens, UniProt Q9NSI6); experiment: Inhibition of human WDR9 bromodomain 2 by BROMOscan assay
Cytochrome P450 3A4 = Cytochrome P450 3A4 (Homo sapiens, UniProt P08684); experiment: Time-dependent inhibition of human recombinant CYP3A4 expressed in Escherichia coli bactosomes using diethoxyfluorescein as substrate by fluorescence assay; type: ADME; conditions: recombinant enzyme
[21] = Permeability of the compound by PAMPA; type: ADME; conditions: read-out: permeability
[22] = Fraction unbound in mouse blood by rapid equilibrium dialysis method; type: ADME, tissue-based
[23] = Fraction unbound in rat blood by rapid equilibrium dialysis method; type: ADME, tissue-based
[24] = Fraction unbound in dog blood by rapid equilibrium dialysis method; type: ADME, tissue-based, Canis lupus familiaris
[25] = Volume of distribution at steady state in Balb/c mouse at 10 mg/kg, iv as bolus dose; type: ADME, organism-based; parameters: dose 10 mg/kg, route intravenous; conditions: in vivo, read-out: Vdss
[26] = Terminal half life in Balb/c mouse at 10 mg/kg, iv as bolus dose; type: ADME, organism-based; parameters: dose 10 mg/kg, route intravenous; conditions: in vivo, read-out: beta t1/2 (converted)
[27] = AUC (0 to t) in Balb/c mouse at 3 mg/kg, po; type: ADME, organism-based; parameters: dose 3 mg/kg, route oral; conditions: plasma
[28] = Oral bioavailability in Balb/c mouse at 3 mg/kg; type: ADME, organism-based; conditions: in vivo
[29] = Blood clearance in rat at 1 mg/kg, iv as infusion and 3 mg/kg, po; type: ADME, organism-based; conditions: whole blood
[30] = Volume of distribution at steady state in rat at 1 mg/kg, iv as infusion and 3 mg/kg, po; type: ADME, organism-based; conditions: in vivo, read-out: Vdss
[31] = AUC (0 to t) in rat at 3 mg/kg, po; type: ADME, organism-based; parameters: dose 3 mg/kg, route oral; conditions: plasma
[32] = Blood clearance in beagle dog at 1 mg/kg, iv as infusion and 3 mg/kg, po; type: ADME, organism-based, Canis lupus familiaris; conditions: whole blood
[33] = Volume of distribution at steady state in beagle dog at 1 mg/kg, iv as infusion and 3 mg/kg, po; type: ADME, organism-based, Canis lupus familiaris; conditions: in vivo, read-out: Vdss
[34] = Terminal half life in beagle dog at 1 mg/kg, iv as infusion; type: ADME, organism-based, Canis lupus familiaris; parameters: dose 1 mg/kg, route intravenous; conditions: in vivo, read-out: beta t1/2 (converted)
[35] = Blood clearance in Cynomolgus monkey at 1 mg/kg, iv as infusion and 3 mg/kg, po; type: ADME, organism-based, Macaca fascicularis; conditions: whole blood
[36] = Terminal half life in Cynomolgus monkey at 1 mg/kg, iv as infusion; type: ADME, organism-based, Macaca fascicularis; parameters: dose 1 mg/kg, route intravenous; conditions: in vivo, read-out: beta t1/2 (converted)
[37] = AUC (0 to t) in Cynomolgus monkey at 2 mg/kg, po; type: ADME, organism-based, Macaca fascicularis; parameters: dose 2 mg/kg, route oral; conditions: plasma
[38] = Oral bioavailability in Cynomolgus monkey at 2 mg/kg; type: ADME, organism-based, Macaca fascicularis; conditions: in vivo
Mus musculus = experiment: Antiinflammatory activity in septic shock Balb/c mouse model assessed as mouse survival at 10 mg/kg, iv as single dose post LPS challenge measured after 5 days post treatment relative to vehicle-treated control; type: functional; conditions: 120 h

## CC(=O)N1c2ccc(-c3ccc(C(=O)O)cc3)cc2[C@H](Nc2ccc(Cl)cc2)C[C@@H]1C
[1]
  IC50: 0.158 µM
[2]
  IC50: 0.2 µM
HepG2
  pEC170: 8.1
PBMC
  IC50: 0.0501 µM
Blood
  IC50: 0.398 µM
Hepatocyte [3]
  CLH: < 0.85 mL/min/g
Hepatocyte [4]
  CLH: < 0.85 mL/min/g
[5]
  CLH: < 0.85 mL/min/g
Cytochrome P450 1A2
  IC50: > 33 µM
Cytochrome P450 2C9
  IC50: 13 µM
Cytochrome P450 2D6
  IC50: > 33 µM
CREB-binding protein [6]
  Kd: 6.3 µM
[7]
  IC50: > 31.6 µM
[8]
  IC50: > 31.6 µM
[9]
  IC50: 0.002 µM
[10]
  IC50: > 31.6 µM
[11]
  IC50: 31.6 µM
Peregrin
  IC50: > 0.00398 µM
[12]
  IC50: > 0.001 µM
[13]
  IC50: > 31.6 µM
CREB-binding protein [14]
  IC50: 31.6 µM
[15]
  IC50: > 0.316 µM
Protein polybromo-1
  IC50: > 31.6 µM
[16]
  IC50: > 7.94 µM
[17]
  IC50: 31.6 µM
[18]
  IC50: 15.8 µM
[19]
  IC50: > 10 µM
[20]
  IC50: 31.6 µM
Cytochrome P450 3A4
  inhibition (INH): Active
[21]
  Papp: 9.5 ×10⁻⁶ cm/s
[22]
  fraction unbound: 0.013
[23]
  fraction unbound: 0.009
[24]
  fraction unbound: 0.065
[25]
  Vd: 0.48 L/kg
[26]
  half-life: 3.6 h
[27]
  AUC(0-t): 6030 ng·h/mL
[28]
  bioavailability: 45%
[29]
  clearance: 26 mL/min/kg
[30]
  Vd: 2 L/kg
[31]
  AUC(0-t): 539 ng·h/mL
[32]
  clearance: 6 mL/min/kg
[33]
  Vd: 0.8 L/kg
[34]
  half-life: 1.8 h
[35]
  clearance: 3 mL/min/kg
[36]
  half-life: 2.7 h
[37]
  AUC(0-t): 11000 ng·h/mL
[38]
  bioavailability: 103%
Mus musculus
  survival at 10 mg/kg: 56%
